# Where two headings read alike, the source gives them in different places.
# Tests used:
# [1] = Solubility pH 5.04; ref [1]; cited from earlier work
# [2] = existent consumer risk assessment for the cosmetic use scenario; ref SCCS / SCCP / SCCNFP; cited from earlier work
# [3] = tested on: human developmental and reproductive toxicity; settings: ref Supplementary Data Sheet 1, cited from earlier work
# [4] = tested on: developmental or reproductive toxicity in animal or human; settings: evidence of developmental or reproductive toxicity in animal or human, irrespective of exposure/dose; ref Supplementary Data Sheet 1; cited from earlier work
# [5] = design: method as in earlier work; settings: ref [3]; cited from earlier work
# [6] = ref Supplementary Data Sheet 1, cited from earlier work
# [7] = ref [2]; cited from earlier work
# [8] = renal clearance, Fup*GFR (PBK parameter); settings: method Fup*GFR
# [9] = hepatic intrinsic clearance, CLint (PBK parameter); assay type: in vitro ADME
# [10] = ref PubChem; cited from earlier work
# [11] = tested on: rats; settings: ref Supplementary Data Sheet 1, cited from earlier work
# [12] = water solubility (PBK parameter); assay type: physicochemical; settings: Solubility pH 6.99, optimised based on [13], read-out: Aqueous Solubility
# [13] = unbound fraction in plasma, fup (PBK parameter); assay type: in vitro ADME; settings: optimised based on [13]
# [14] = Human in vivo PK data: concentration-dose ratio (CDR) and toxicokinetic variability factor (TKVF);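 note: Literature-pooled human in vivo PK data, plasma, serum or cord blood concentrations per daily dose, weighted by study population size across non-pregnant, pregnant and fetal groups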
# [15] = tested on: mice; design: method as in Supplementary Data Sheet 1; settings: ref Supplementary Data Sheet 1; cited from earlier work
# [16] = tested on: pigtail monkeys; design: method as in Supplementary Data Sheet 1; settings: the only dose tested, ref Supplementary Data Sheet 1; cited from earlier work
# [17] = Bioactivity exposure ratio (BER): minimum platform PoD / estimated Cmax; settings: low-risk scenario of normal dietary exposure to retinol and its metabolite
# [18] = tested on: hamsters; design: method as in Supplementary Data Sheet 1; settings: ref Supplementary Data Sheet 1; cited from earlier work
# [19] = tested on: serotonin receptor HTR2B; experiment: IPP: serotonin receptor HTR2B binding; settings: low-risk exposure scenario
# Description: In vitro pharmacological profiling is used to measure specific and high affinity non-covalent binding interactions between chemicals of interest and various targets with known safety liabilities. These targets include G protein coupled receptors (GPCRs), nuclear hormone receptors (NHRs), ion channels and enzymes. For this evaluation we included 72 targets of interest a full list of which is available in Supplementary Data Sheet 5, across a range of radioligand binding, enzymatic and protein-protein interaction assays run in binding mode only.
# The process for deriving a PoD for each of the 72 targets consisted of a two-step method that has been widely adopted when conducting in vitro pharmacological profiling experiments ([Brennan et al., 2024]). […] Targets showing an inhibition or stimulation greater than 50% of a maximal response produced by a reference compound are followed up in a second phase which includes an eight-point concentration response (in two replicates). […] EC50 values (concentration producing a half-maximal response) and IC50 values (concentration causing a half-maximal inhibition of the control agonist response) were determined by the Bayesian probabilistic model of the concentration-response curves and the Hill equation as per ([Labelle et al., 2019]). […] Calculated IC50s were taken forwards as the IPP PoDs ([Middleton et al., 2022]). […]
structure (smiles),measurement,setting,value
Nc1cc([N+](=O)[O-])cc(Cl)c1O [2-Amino-6-chloro-4-nitrophenol],Aqueous Solubility,[1],450000 µg/mL
same,MoS,[2],Used safely in cosmetic products. Existent consumer risk assessment from the SCCP. MoS >400.
same,Exposure risk (DART risk classification),"[3]; Cosmetic, 2% in hair colourant, dermal",Low Risk
same,DART Hazard Call,[4],Non Toxic
same,Peff,[5],7.96 cm/s x E-04
same,NOAEL for maternal toxicity,[6],30 mg/kg bw
same,Fup,[7],0.47%
same,Renal Clearance,[8],0.034 L/h
"CCCCC(CC)C(=O)O (centres unmarked) [2-Ethylhexanoic acid (2-EHA), 2-Ethylhexanoic acid]",Intrinsic Liver Clearance,[9]; optimised based on [16],7.128 L/h
same,pKa Value ACID,[10],4.8
same,developmental NOAEL,"[11]; 2 rat studies, clubfoot/reduced skeletal ossification",100 mg/kg bw/day
same,NOAEL for parental effects,[11]; EOGRT in rats,250 mg/kg bw/d
same,Renal Clearance,[8],0.008 L/h
"Cc1cc(C(C)(C)C)c(O)c(C(C)(C)C)c1 [Butylated hydroxytoluene (BHT), Butylated hydroxytoluene]",solubility,[12],5 µg/mL
same,Intrinsic Liver Clearance,[9]; optimised based on [13],22540.4 L/h
same,Fup,[13],0.33%
same,MoS,[2],Used safely in cosmetic products. Existent consumer risk assessment from the SCCS. MoS >3000.
same,offspring NOAEL,"[6]; OECD 416, effects on litter size, sex ratio and pup body weight gain","OECD 416: 0, ~25, ~100 and ~280 mg/kg/day. Effects on offspring. Offspring NOAEL of 25 mg/kg bw/day based on effects on litter size, sex ratio and pup body weight gain."
same,TKVF,"[14]; Non-Pregnant, oral",2.5
same,Renal Clearance,[8],0.02382 L/h
"CC1=C(/C=C/C(C)=C/C=C/C(C)=C/C(=O)O)C(C)(C)CCC1 [all-trans-retinoic acid (ATRA), all-trans-retinoic acid]","dose above which gross external, soft tissue and skeletal alterations occurred",[15],> 0.7 mg/kg/day
same,"dose at which gross external, soft tissue and skeletal alterations occurred",[16],10 mg/kg/day
same,Exposure risk (DART risk classification),"[3]; Dietary, <10,000 IU Retinol, oral",Low Risk
same,Exposure risk (DART risk classification),"[3]; Pharmaceutical, 80 mg/daily, oral",High Risk
same,Exposure risk (DART risk classification),"[3]; Pharmaceutical, 0.1% cream, dermal",Uncertain Risk
same,DART Hazard Call,[4],Toxic
same,"dose above which gross external, soft tissue and skeletal alterations occurred",[11]; rats,> 2 mg/kg/day
same,BER,[17],< 1
same,"dose above which gross external, soft tissue and skeletal alterations occurred",[18],> 7 mg/kg/day
same,CDR fold difference to non-pregnant,"[14]; female, human, in vivo",0.77
same,CDR fold difference to pregnant,"[14]; female, human, in vivo",1.00
same,TKVF,"[14]; female, human, in vivo",1.47
same,CDR fold difference to pregnant,"[14]; human, in vivo",0.71
"CCOC(=O)c1ccccc1C(=O)OCC [Diethyl phthalate (DEP), Diethyl phthalate]",MoS,[2],Used safely in cosmetic products. Existent safety assessment from the SCCNFP. MoS 161
same,BER from binding to the serotonin receptor HTR2B,[19],< 1

# Reference: PMC12256496, “An advancement in developmental and reproductive toxicity (DART) risk assessment: evaluation of a bioactivity and exposure-based NAM toolbox” (Frontiers in Toxicology, 2025)
